Patent publication US9889146B2, “Benzoxaborole compounds and uses thereof” (priority 2012, dated 2018)
Values after ≈ are worked out from the molar mass of the structure shown.

How the values were obtained:
Type in all cases: cell-based
P. aeruginosa = assay: In vitro activity against P. aeruginosa clinical isolates; conditions: P. aeruginosa, 2,008 clinical isolates; GSK2251052 based on potential susceptible breakpoint of ≦4 μg/mL
Procedure: GSK2251052 was tested for activity against P. aeruginosa, and its activity was compared to other antibiotics of known activity. The results are shown below in Tables 2a and 2b. Of 2,008 clinical isolates tested (from 2009-2010 subjects, of which 40% were from North America) greater than 90% were susceptible to GSK2251052 based on a potential susceptible breakpoint of ≦4 μg/mL.

[1] = test system: Escherichia coli 1161435 parent and mutant strains B4, B26 and B35; assay: Sensitivity to leucine analogs in MH and M9 media
[2] = test system: E. coli ATCC 25922 wild type and mutants; assay: MIC in M9 minimal media; conditions: Escherichia coli, read-out: MICs in M9 minimal media
Procedure: (§1) Spontaneous Resistance Frequency was determined in vitro for GSK2251052 and the resistance mutants in E. coli ATCC 25922, K. pneumoniae ATCC 13883, and P. aeruginosa ATCC 27853 strains were characterized. GSK2251052 was prepared as described in U.S. Pat. No. 7,816,344 (the entire contents of which are hereby incorporated by reference herein). LB broth, Mueller Hinton II broth (adjusted), and Difco noble agar were obtained from Becton Dickinson (Cockeysville, Md., USA). M9 minimal broth containing 1×M9 salt, 0.5 μg/ML thiamine, 1 mM MgSO4, 0.1 mM CaCl2, 2% glucose, was obtained from Teknova (Hollister, Calif., USA). Antibacterial agents ciprofloxacin, ceftazidime, chloramphenicol, gentamycin, kanamycin, polymixin B, tobramycin and trimethoprim, and amino acids were obtained from Sigma Chemicals (St. Louis, Mo., USA). Strains were obtained from ATCC (Manassas, Va., USA).
(§2) Susceptibility tests were performed following the recommendations for aerobic bacteria (M7-A7) from the Clinical and Laboratories Standards Institute (CLSI).
(§3) The aminoacyl-tRNA synthetase enzyme, LeuRS, ensures the correct amino acid, leucine, is attached to tRNA^Leu. The LeuRS synthetic active site is capable of aminoacylating tRNA^Leu with amino acids structural similar to leucine (norvaline, norleucine, isoleucine and methionine). These mischarged tRNA^Leu are hydrolyzed by the editing domain, thus preventing the deleterious incorporation of incorrect amino acids into the growing polypeptide. The laboratory generated mutants were further tested for their ability to grow in defined media with exogenously added amino acids. Norvaline and norleucine, structurally similar to leucine, were tested in M9 minimal media. […]

[3] = test system: P. aeruginosa ATCC 27853 wild type and mutants; assay: MIC in M9 minimal media; conditions: Pseudomonas aeruginosa, read-out: MICs in M9 minimal media
Procedure: as §1, §2, §3

[4] = test system: K. pneumoniae ATCC 13883 wild type and mutants; assay: MIC in M9 minimal media; conditions: Klebsiella pneumoniae, read-out: MICs in M9 minimal media
Procedure: as §1, §2, §3

[5] = test system: E. coli ATCC 25922 wild type and mutants; assay: MIC, wild type and GSK2251052 resistant mutants; conditions: Escherichia coli
Procedure: as §1, §2
(§4) Laboratory generated mutants resistant to GSK2251052 contain mutations in the editing domain of LeuRS. Six to ten GSK2251052 resistant colonies of E. coli ATCC 25922, K. pneumoniae ATCC 13883 and P. aeruginosa ATCC 27853 were selected for further analysis and their MICs to GSK2251052 were determined (Table 4-7).

[6] = test system: P. aeruginosa ATCC 27853 wild type and mutants; assay: MIC, wild type and GSK2251052 resistant mutants; conditions: Pseudomonas aeruginosa
Procedure: as §1, §2, §4

[7] = test system: K. pneumoniae ATCC 13883 wild type and mutants; assay: MIC, wild type and GSK2251052 resistant mutants; conditions: Klebsiella pneumoniae
Procedure: as §1, §2, §4

Compound | MIC (sensitivity to leucine analogs) ([1]; 1161435 Parent, M9) [µg/mL] | MIC (sensitivity to leucine analogs) ([1]; 1161435 Parent, MH) [µg/mL] | MIC (sensitivity to leucine analogs) ([1]; B4 (P339L), M9) [µg/mL] | MIC (sensitivity to leucine analogs) ([1]; B4 (P339L), MH) [µg/mL] | MIC (sensitivity to leucine analogs) ([1]; B26 (R334H), M9) [µg/mL] | MIC (sensitivity to leucine analogs) ([1]; B26 (R334H), MH) [µg/mL] | MIC (sensitivity to leucine analogs) ([1]; B35 (D251N), M9) [µg/mL] | MIC (sensitivity to leucine analogs) ([1]; B35 (D251N), MH) [µg/mL] | also measured
NCC[C@H](O)C(=O)N[C@@H]1C[C@H](N)[C@@H](O[C@H]2O[C@H](CN)[C@@H](O)[C@H](O)[C@H]2O)[C@H](O)[C@H]1O[C@H]1O[C@H](CO)[C@@H](O)[C@H](N)[C@H]1O [Amikacin] | – | – | – | – | – | – | – | – | % susceptible (P. aeruginosa): 90.2%
CC(C)[C@H](N)C(=O)O [L-Valine] | > 128 | > 128 | > 128 | > 128 | > 128 | > 128 | > 128 | > 128 | –
Colistin | – | – | – | – | – | – | – | – | % susceptible (P. aeruginosa): 62.3%
CCCC[C@H](N)C(=O)O [Norleucine, L-Norleucine] | 32 | > 128 | 16 | > 128 | 8 | > 128 | 16 | > 128 | MIC ([2]; ATCC25922, E 101(leuRS Y246H)): 2 µg/mL (≈ 15.2 µM); MIC ([2]; ATCC25922, E 102(leuRS D345G)): 4 µg/mL (≈ 30.5 µM); MIC ([2]; ATCC25922, E 107(leuRS G229S)): 4 µg/mL (≈ 30.5 µM); MIC ([2]; ATCC25922, E. coli ATCC25922): 4 µg/mL (≈ 30.5 µM); MIC ([3]; ATCC27853, P 101 (leuRS T256P)): > 64 µg/mL; MIC ([3]; ATCC27853, P 106 (leuRS V342M)): > 64 µg/mL; MIC ([3]; ATCC27853, P 108 (leuRS T252P)): > 64 µg/mL; MIC ([3]; ATCC27853, P. aeruginosa ATCC27853): > 64 µg/mL; MIC ([4]; ATCC13883, K 104(leuRS D345Y)): 16 µg/mL (≈ 122 µM); MIC ([4]; ATCC13883, K 105(leuRS G229R)): 32 µg/mL (≈ 244 µM); MIC ([4]; ATCC13883, K 107(leuRS S227F)): 64 µg/mL (≈ 488 µM); MIC ([4]; ATCC13883, K 108(leuRS T248P)): 64 µg/mL (≈ 488 µM); MIC ([4]; ATCC13883, K 110(leuRS V338L)): > 64 µg/mL; MIC ([4]; ATCC13883, Klebsiella pneumoniae ATCC13883): 32 µg/mL (≈ 244 µM); sensitivity of the mutants ([1]; mutant strains in M9 minimal media): some sensitivity
C=CCC(N)C(=O)O (racemic) [DL-2-Allylglycine] | 16 | > 128 | 16 | > 128 | 16 | > 128 | 32 | > 128 | –
NC(CC1CCCC1)C(=O)O (racemic) [3-Cyclopentyl-DL-Alanine] | > 128 | > 128 | > 128 | > 128 | > 128 | > 128 | > 128 | > 128 | –
NC[C@H]1O[C@H](O[C@H]2[C@H](O)[C@@H](O[C@H]3O[C@H](CO)[C@@H](O)[C@H](N)[C@H]3O)[C@H](N)C[C@@H]2N)[C@H](O)[C@@H](O)[C@@H]1O [Kanamycin] | – | – | – | – | – | – | – | – | MIC ([5]; ATCC25922, E wt, read-out: MICs): 4 µg/mL (≈ 8.26 µM); MIC ([5]; ATCC25922, read-out: MICs, mutant E 101): 4 µg/mL (≈ 8.26 µM); MIC ([5]; ATCC25922, read-out: MICs, mutant E 102): 4 µg/mL (≈ 8.26 µM); MIC ([5]; ATCC25922, read-out: MICs, mutant E 107): 8 µg/mL (≈ 16.5 µM); MIC ([6]; ATCC27853, P wt., read-out: MICs): > 64 µg/mL; MIC ([6]; ATCC27853, read-out: MICs, mutant P 101): > 64 µg/mL; MIC ([6]; ATCC27853, read-out: MICs, mutant P106): > 64 µg/mL; MIC ([6]; ATCC27853, read-out: MICs, mutant P108): > 64 µg/mL; MIC ([7]; ATCC13883, K wt., read-out: MICs): 2 µg/mL (≈ 4.13 µM); MIC ([7]; ATCC13883, read-out: MICs, mutant K 104): 2 µg/mL (≈ 4.13 µM); MIC ([7]; ATCC13883, read-out: MICs, mutant K 105): 2 µg/mL (≈ 4.13 µM); MIC ([7]; ATCC13883, read-out: MICs, mutant K 107): 2 µg/mL (≈ 4.13 µM); MIC ([7]; ATCC13883, read-out: MICs, mutant K 108): 2 µg/mL (≈ 4.13 µM); MIC ([7]; ATCC13883, read-out: MICs, mutant K 110): 1 µg/mL (≈ 2.06 µM)
C[C@@H](O)[C@H](N)C(=O)O [L-Threonine] | > 128 | > 128 | > 128 | > 128 | > 128 | > 128 | > 128 | > 128 | –
CSCC[C@H](N)C(=O)O [L-Methionine] | > 128 | > 128 | > 128 | > 128 | > 128 | > 128 | > 128 | > 128 | –
CC[C@H](C)[C@H](N)C(=O)O [L-Isoleucine] | > 128 | > 128 | > 128 | > 128 | > 128 | > 128 | > 128 | > 128 | –
CC(=O)CC(N)C(=O)O (racemic) [DL-oxonorvaline] | 128 | > 256 | 64 | > 256 | 64 | > 256 | 128 | > 256 | –
CC(CC(N)C(=O)O)C(F)(F)F (racemic) [5,5,5-Trifluoro-DL-Leucine] | 128 | > 128 | 128 | > 128 | 64 | > 128 | 64 | > 128 | –
CN(C)CC(N)C(=O)O.Cl.Cl (racemic) [4-Aza-DL-Leucine dihydrochloride] | 64 | > 128 | 64 | > 128 | 64 | > 128 | 32 | > 128 | –
